Source: patent US6620418B1, “Antiseptic/antifungal agent and endermic liniment composition which contains it” (Shiseido Company, Ltd., priority 1999, dated 2003)

System: Mold, yeast, and bacteria
Assay: The antiseptic effectiveness evaluation test
Type: cell-based
Method: The Antiseptic Effectiveness Evaluation Test 30 ml of the sample was inoculated with microbe-containing fluid, and the change in the number of microbes was checked with the smearing method. Mold, yeast, and bacteria were used as the inoculation microbes. The antiseptic effectiveness was evaluated based on the changes in the number of the microbes in two weeks, and the obtained results were classified by using the following four step criterion. […] X: No reduction in microbes was observed.

## CCCCC(CC)(CO)CO [2-n-butyl-2-ethyl-1,3-propanediol]
1,3-butylene glycol additionally blended into the composition
  concentration at which an adequate effect on bacteria was confirmed: 0.1%
Lotions of Table 1-2, effect on all the mold, yeast, and bacteria
  concentration of 2-n-butyl-2-ethyl-1,3-propanediol at which the compositions showed adequate antiseptic effectiveness: ≥ 0.5%
